Results published in the NIST ThermoML archive (doi:10.1016/j.jct.2008.07.016).
Numbers after ± are expanded uncertainties.

Test: molar enthalpy of vaporization or sublimation
Settings: 298.15 K; Crystal; microcalorimetry

molar enthalpy | Structure (SMILES)
22.1 ± 1.1 kcal/mol | Brc1ccc2[nH]ccc2c1 [1H-indole, 5-bromo-]
21 ± 0.908 kcal/mol | Brc1ccc2c(c1)CCN2 [5-Bromoindoline]
